In the supplement of paper PMC8617591:

Legend:
[1] = system: Mycobacterium tuberculosis Erdman (autoluminescent); assay: AUC25, normalised area under dose response up to IC25 (three-drug combination) (fraction (0-1)); higher = more potent at low dose
Experimental: (§1)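 DiaMOND equipotent three-drug combination dose responses (10 doses, 1.5- or 2-fold spacing, centred on IC90) against autoluminescent M. tuberculosis Erdman in 8 in vitro models. Read-out is OD600, or luminescence for the intracellular and dormancy models, normalised to untreated wells. Hill-fit Einf, AUC25 and GRinf are potency metrics; FIC50 and FIC90 are total Loewe fractional inhibitory concentrations as log2 (negative = synergy).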

[2] = system: Mycobacterium tuberculosis Erdman (autoluminescent); assay: total FIC50 (Loewe) at 50% inhibition, three-drug combination (log2); higher = more antagonistic
Experimental: as §1

[3] = system: Mycobacterium tuberculosis Erdman (autoluminescent); assay: total FIC90 (Loewe) at 90% inhibition, three-drug combination (log2); higher = more antagonistic
Experimental: as §1

[4] = system: Mycobacterium tuberculosis Erdman (autoluminescent); assay: GRinf, maximum normalised growth rate inhibition (three-drug combination) (unitless (-1 to 1)); higher = less effect (negative = killing)
Experimental: as §1

[5] = system: Mycobacterium tuberculosis Erdman (autoluminescent); assay: Einf, fitted maximum growth inhibition of three-drug combination (fraction); higher = stronger maximal inhibition
Experimental: as §1

CC(=O)NC[C@H]1CN(c2ccc(N3CCOCC3)c(F)c2)C(=O)O1 [linezolid] + O=[N+]([O-])c1cn2c(n1)OC[C@@H](OCc1ccc(OC(F)(F)F)cc1)C2 [pretomanid] + CO[C@H]1/C=C/O[C@@]2(C)Oc3c(C)c(O)c4c(O)c(c(/C=N/N5CCN(C)CC5)c(O)c4c3C2=O)NC(=O)/C(C)=C\C=C\[C@H](C)[C@H](O)[C@@H](C)[C@@H](O)[C@@H](C)[C@H](OC(C)=O)[C@@H]1C [rifampicin]
Conditions | AUC25, [1] | Einf, [5] | GRinf, [4] | total FIC50, [2] | total FIC90, [3]
in vitro model: acidic pH 5.7, time point: constant (~7 days, model-specific) | 0.0793 | 0.893 | -0.221 | 0.745 | –
in vitro model: acidic pH 5.7, time point: terminal (~4-5 doublings, model-specific) | 0.0641 | 0.987 | -0.265 | 0.832 | 0.521
in vitro model: intracellular J774, time point: constant = terminal | – | 0.98 | -0.287 | – | 0.288

Conditions | AUC25, [1] | Einf, [5] | GRinf, [4] | total FIC50, [2] | total FIC90, [3]
in vitro model: butyrate, time point: constant (~7 days, model-specific) | 0.0869 | 0.896 | 0.0695 | 0.127 | 0.148
in vitro model: butyrate, time point: terminal (~4-5 doublings, model-specific) | 0.0669 | 0.948 | 0.0615 | 0.00331 | -0.305
in vitro model: cholesterol 0.05 mM, time point: constant (~7 days, model-specific) | 0.128 | 0.66 | -0.0769 | 0.0451 | –
in vitro model: cholesterol 0.05 mM, time point: terminal (~4-5 doublings, model-specific) | 0.127 | 0.895 | -0.203 | 0.545 | -0.354
in vitro model: cholesterol-high 0.2 mM, time point: constant (~7 days, model-specific) | 0.0921 | 0.885 | -0.118 | 0.326 | 1.11
in vitro model: cholesterol-high 0.2 mM, time point: terminal (~4-5 doublings, model-specific) | 0.0881 | 0.972 | -0.505 | 0.645 | 0.499
in vitro model: dormancy (butyrate + nitrate, low O2), time point: constant (~7 days, model-specific) | 0.0572 | 0.911 | 0.214 | 0.855 | 0.28
in vitro model: dormancy (butyrate + nitrate, low O2), time point: terminal (~4-5 doublings, model-specific) | 0.0401 | 0.97 | -0.0505 | 0.25 | 0.29
in vitro model: standard 7H9 glycerol, time point: constant = terminal | 0.0674 | 0.915 | 0.0995 | 0.0346 | -0.714
in vitro model: valerate, time point: constant (~7 days, model-specific) | 0.1 | 0.89 | -0.015 | 0.394 | –
in vitro model: valerate, time point: terminal (~4-5 doublings, model-specific) | 0.0505 | 0.925 | 0.0379 | 0.622 | 0.278

CC(=O)NC[C@H]1CN(c2ccc(N3CCOCC3)c(F)c2)C(=O)O1 [linezolid] + O=[N+]([O-])c1cn2c(n1)OC[C@@H](OCc1ccc(OC(F)(F)F)cc1)C2 [pretomanid] + NC(=O)c1cnccn1 [pyrazinamide]
Conditions | AUC25, [1] | Einf, [5] | GRinf, [4] | total FIC50, [2] | total FIC90, [3]
in vitro model: acidic pH 5.7, time point: constant (~7 days, model-specific) | 0.0949 | 0.856 | -0.473 | 0.268 | –
in vitro model: acidic pH 5.7, time point: terminal (~4-5 doublings, model-specific) | 0.0835 | 0.975 | -0.473 | 0.91 | -0.88
in vitro model: intracellular J774, time point: constant = terminal | – | 0.986 | -0.287 | – | 0.7

Conditions | AUC25, [1] | Einf, [5] | GRinf, [4] | total FIC50, [2] | total FIC90, [3]
in vitro model: butyrate, time point: constant (~7 days, model-specific) | 0.104 | 0.885 | 0.0996 | -0.0692 | –
in vitro model: butyrate, time point: terminal (~4-5 doublings, model-specific) | 0.0881 | 0.929 | 0.102 | -0.254 | 0.667
in vitro model: cholesterol 0.05 mM, time point: constant (~7 days, model-specific) | 0.14 | 0.706 | -0.191 | – | –
in vitro model: cholesterol 0.05 mM, time point: terminal (~4-5 doublings, model-specific) | 0.145 | 0.93 | -0.318 | 0.461 | –
in vitro model: cholesterol-high 0.2 mM, time point: constant (~7 days, model-specific) | 0.108 | 0.902 | -0.152 | 0.147 | –
in vitro model: cholesterol-high 0.2 mM, time point: terminal (~4-5 doublings, model-specific) | 0.113 | 1 | -1 | 0.0501 | 0.419
in vitro model: dormancy (butyrate + nitrate, low O2), time point: constant (~7 days, model-specific) | 0.056 | 0.907 | 0.16 | 0.49 | 0.622
in vitro model: dormancy (butyrate + nitrate, low O2), time point: terminal (~4-5 doublings, model-specific) | 0.0409 | 0.985 | -0.287 | 0.47 | 0.511
in vitro model: standard 7H9 glycerol, time point: constant = terminal | 0.0884 | 0.926 | 0.0609 | 0.706 | –
in vitro model: valerate, time point: constant (~7 days, model-specific) | 0.102 | 0.808 | 0.0778 | -0.628 | –
in vitro model: valerate, time point: terminal (~4-5 doublings, model-specific) | 0.0792 | 0.891 | 0.177 | -0.429 | 1.41

COc1c(N2C[C@@H]3CCCN[C@@H]3C2)c(F)cc2c(=O)c(C(=O)O)cn(C3CC3)c12 [moxifloxacin] + CO[C@H]1/C=C/O[C@@]2(C)Oc3c(C)c(O)c4c(O)c(c(/C=N/N5CCN(C6CCCC6)CC5)c(O)c4c3C2=O)NC(=O)/C(C)=C\C=C\[C@H](C)[C@H](O)[C@@H](C)[C@@H](O)[C@@H](C)[C@H](OC(C)=O)[C@@H]1C [rifapentine] + CO[C@H]1/C=C/O[C@@]2(C)Oc3c(C)c(O)c4c(O)c(c(/C=N/N5CCN(C)CC5)c(O)c4c3C2=O)NC(=O)/C(C)=C\C=C\[C@H](C)[C@H](O)[C@@H](C)[C@@H](O)[C@@H](C)[C@H](OC(C)=O)[C@@H]1C [rifampicin]
Conditions | AUC25, [1] | Einf, [5] | GRinf, [4] | total FIC50, [2] | total FIC90, [3]
in vitro model: acidic pH 5.7, time point: constant (~7 days, model-specific) | 0.0724 | 0.838 | 0.0128 | 0.153 | –
in vitro model: acidic pH 5.7, time point: terminal (~4-5 doublings, model-specific) | 0.0677 | 0.973 | -0.122 | 0.25 | 0.137
in vitro model: intracellular J774, time point: constant = terminal | – | 0.952 | -0.11 | – | 1.1

Conditions | AUC25, [1] | Einf, [5] | GRinf, [4] | total FIC50, [2] | total FIC90, [3]
in vitro model: butyrate, time point: constant (~7 days, model-specific) | 0.102 | 0.883 | 0.109 | 0.138 | 2.35
in vitro model: butyrate, time point: terminal (~4-5 doublings, model-specific) | 0.0922 | 0.952 | 0.0591 | 0.217 | 0.559
in vitro model: cholesterol 0.05 mM, time point: constant (~7 days, model-specific) | 0.101 | 0.593 | 0.0182 | 0.609 | –
in vitro model: cholesterol 0.05 mM, time point: terminal (~4-5 doublings, model-specific) | 0.0956 | 0.891 | -0.0633 | 0.426 | 1.76
in vitro model: cholesterol-high 0.2 mM, time point: constant (~7 days, model-specific) | 0.0581 | 0.825 | -0.0146 | 0.356 | –
in vitro model: cholesterol-high 0.2 mM, time point: terminal (~4-5 doublings, model-specific) | 0.0631 | 1 | -0.758 | 0.707 | 0.468
in vitro model: dormancy (butyrate + nitrate, low O2), time point: constant (~7 days, model-specific) | 0.0643 | 0.868 | 0.252 | 0.441 | 0.199
in vitro model: dormancy (butyrate + nitrate, low O2), time point: terminal (~4-5 doublings, model-specific) | 0.0509 | 0.977 | -0.14 | 0.539 | 0.615
in vitro model: standard 7H9 glycerol, time point: constant = terminal | 0.0451 | 0.821 | 0.307 | 0.381 | –
in vitro model: valerate, time point: constant (~7 days, model-specific) | 0.0421 | 0.846 | 0.0605 | 0.542 | –
in vitro model: valerate, time point: terminal (~4-5 doublings, model-specific) | 0.0285 | 0.934 | 0.041 | 0.547 | 0.3
